Experimental findings from patent publication US8263606B2 (Xenon Pharmaceuticals Inc., priority 2008, dated 2012) are described below.

SMILES strings stand for the structures. Where only a bound is given, the exact number is not on record here.

As usually defined, the melting point is the temperature of the solid-liquid transition. A word on the inhibition: it is the share of the control response that was lost under treatment. The term IC50 denotes the concentration at which inhibition is half-maximal.

Series [1] deals with inactivated state of the channel of interest (sodium channel). As to the kind of experiment: Electrophysiological assay (whole cell voltage clamp, in vitro). In kind it is cell-based. As to conditions: affinity for the inactivated state of the channel of interest. The method, boiled down:
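Whole-cell voltage clamp at ambient temperature on stably transfected cells; CsF-based pipette, pH 7.4 NaCl bath. Current blockade measured at holding potentials of −120 mV (resting, Kr) and one giving 10% availability (inactivated, Ki), held ≥10 s to equilibrate; apparent Kd calculated from fractional block.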

The target of another series is CYP3A4 (Homo sapiens, UniProt P08684). Kind of series: Cytochrome P450 (CYP450) Inhibition Assay, CYP3A4 (Vivid fluorescence, BOMCC substrate). As to conditions: human, P450 Baculosomes (recombinant CYP3A4), probe BOMCC (Vivid substrate).
In a further series the test system is sodium channel. Kind of series: Guanidine influx assay (14C-guanidine radiotracer flux, in vitro). Type of series: cell-based, human or rat. The conditions noted are these: guanidine influx assay using a known cell line that expresses a sodium channel. In a few lines:
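IC50 derives from a four-parameter logistic fit of 14C-guanidine uptake, test agent serially half-diluted around a 1 μM midpoint. Flux was driven by aconitine in low-sodium HEPES/choline saline at ambient temperature, using endogenous or recombinant human or rat sodium-channel cell lines plated ~100,000/well for 20–24 h.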

Sequence of CYP3A4 (P08684 whole entry): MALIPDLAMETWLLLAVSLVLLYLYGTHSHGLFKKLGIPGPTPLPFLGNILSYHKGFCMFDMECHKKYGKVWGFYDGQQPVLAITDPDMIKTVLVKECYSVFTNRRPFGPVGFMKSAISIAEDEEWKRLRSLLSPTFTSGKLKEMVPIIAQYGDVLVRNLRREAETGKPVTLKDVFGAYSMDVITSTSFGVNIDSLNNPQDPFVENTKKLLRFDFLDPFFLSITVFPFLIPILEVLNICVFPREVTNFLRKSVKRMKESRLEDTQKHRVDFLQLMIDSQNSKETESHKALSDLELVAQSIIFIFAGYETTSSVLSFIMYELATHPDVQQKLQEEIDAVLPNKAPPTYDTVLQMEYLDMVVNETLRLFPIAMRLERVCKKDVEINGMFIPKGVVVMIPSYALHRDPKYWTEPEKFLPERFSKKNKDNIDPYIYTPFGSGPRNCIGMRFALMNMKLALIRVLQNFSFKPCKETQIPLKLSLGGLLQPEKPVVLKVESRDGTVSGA

In the case of `O=C1N(Cc2ccc(C(F)(F)F)o2)c2ccccc2[C@]12COc1cc3c(cc12)OCCO3` [Example 4.50, (S)-1′-{[5-(trifluoromethyl)furan-2-yl]methyl}-2,3-dihydrospiro[furo[2,3-g][1,4]benzodioxine-8,3′-indol]-2′(1′H)-one], the melting point is 53 to 56 °C. In series [1], this molecule yielded a Ki of less than 300 nM. The inhibition at 10 µM at CYP3A4 is greater than 50%. Moreover, the IC50 in the series with sodium channel (activity level class) fell in the range of 1 to 100 nM.
In the same order, the values of `O=C1N(Cc2ccccn2)c2ccccc2[C@]12COc1cc3c(cc12)OCCO3` [Example 4.51, (S)-1′-(pyridin-2-ylmethyl)-2,3-dihydrospiro[furo[2,3-g][1,4]benzodioxine-8,3′-indol]-2′(1′H)-one] are 144 to 146 °C, less than 300 nM, less than 50% and 1 to 100 nM.
As to `O=C1N(Cc2ccc(C(F)(F)F)o2)c2ccccc2C12COc1cc3c(cc12)OCCCO3` (stereo not drawn) [Example 4.54, 1-{[5-(trifluoromethyl)furan-2-yl]methyl}-3,4-dihydro-2H-spiro[furo[2,3-h][1,5]benzodioxepine-9,3′-indol]-2′(1′H)-one], the melting point is 162 to 164 °C. This molecule came in with a Ki in series [1] of less than 300 nM. At CYP3A4, the inhibition at 10 µM is greater than 50%. In addition, in the series with sodium channel (activity level class), the IC50 was in the range of 100 to 1000 nM.
In the same order, the values of `O=C1N(Cc2ccccn2)c2ccccc2C12COc1cc3c(cc12)OCCCO3` (stereo not drawn) [Example 4.55, 1′-(pyridin-2-ylmethyl)-3,4-dihydro-2H-spiro[furo[2,3-h][1,5]benzodioxepine-9,3′-indol]-2′(1′H)-one] are 122 to 123 °C, greater than 300 nM, less than 50% and 100 to 1000 nM.
In the same order, the values of `O=C1N(Cc2ccccn2)c2cccc(-c3ccc(Oc4ccccc4)cc3)c2C12COc1cc3c(cc12)OCCO3` (stereo not drawn) [Example 4.103, 4′-(4-phenoxyphenyl)-1′-(pyridin-2-ylmethyl)-2,3-dihydrospiro[furo[2,3-g][1,4]benzodioxine-8,3′-indol]-2′(1′H)-one] are 196 to 199 °C, less than 300 nM, less than 50% and 100 to 1000 nM.
As for `O=C1N(Cc2ccccn2)c2ccccc2[C@@]12COc1cc3c(cc12)CCO3` [Example 5.4, (3R)-1-(pyridin-2-ylmethyl)-5,6-dihydrospiro[benzo[1,2-b:5,4-b′]difuran-3,3′-indol]-2′(1′H)-one], the melting point was 154 to 156 °C. This molecule also yielded a Ki in series [1] greater than 300 nM. For the same molecule, the inhibition at 10 µM at CYP3A4 is less than 50%. The IC50 in the series with sodium channel (activity level class) lay in the range of 1000 to 10000 nM.
In the same order, the values of `O=C1N(Cc2ccc(C(F)(F)F)o2)c2ccccc2[C@@]12COc1cc3c(cc12)CCO3` [Example 5.5, (3R)-1′-{[5-(trifluoromethyl)furan-2-yl]methyl}-5,6-dihydrospiro[benzo[1,2-b:5,4-b′]difuran-3,3′-indol]-2′(1′H)-one] are 68 to 70 °C, greater than 300 nM, greater than 50% and 1000 to 10000 nM.
Regarding `O=C1N(Cc2ccccn2)c2ccccc2[C@]12COc1cc3c(cc12)CCO3` [Example 5.6, (3S)-1′-(pyridin-2-ylmethyl)-5,6-dihydrospiro[benzo[1,2-b:5,4-b′]difuran-3,3′-indol]-2′(1′H)-one], the melting point was in the range of 84 to 85 °C. Besides, the Ki in series [1] is greater than 300 nM. The inhibition at 10 µM at CYP3A4 was less than 50%. Besides, in the series with sodium channel (activity level class), the IC50 lay within 1 to 100 nM.
In the same order, the values of `O=C1N(Cc2ccc(C(F)(F)F)o2)c2ccccc2[C@]12COc1cc3c(cc12)CCO3` [Example 5.7, (3S)-1′-{[5-(trifluoromethyl)furan-2-yl]methyl}-5,6-dihydrospiro[benzo[1,2-b:5,4-b′]difuran-3,3′-indol]-2′(1′H)-one] are 64 to 65 °C, less than 300 nM, greater than 50% and 1 to 100 nM.
The molecule `COc1ncc(CN2C(=O)[C@@]3(COc4cc5c(cc43)OCCO5)c3ccccc32)cn1` [Example 5.17, (8S)-1′-[(2-methoxypyrimidin-5-yl)methyl]-2,3-dihydrospiro[furo[2,3-g][1,4]benzodioxine-8,3′-indol]-2′(1′H)-one] yielded a melting point of 102 to 104 °C. Besides, the Ki in series [1] is less than 300 nM. In addition, the inhibition at 10 µM on CYP3A4 is less than 50%. Moreover, in the series on sodium channel (activity level class), the IC50 was in the range of 1 to 100 nM.
The molecule `O=C1N(Cc2ncccn2)c2ccccc2[C@]12COc1cc3c(cc12)OCCO3` [Example 5.18, (8S)-1′-(pyrimidin-2-ylmethyl)-2,3-dihydrospiro[furo[2,3-g][1,4]benzodioxine-8,3′-indol]-2′(1′H)-one] displayed a melting point of 210 to 212 °C. Also, the Ki in series [1] is less than 300 nM. In addition, the inhibition at 10 µM at CYP3A4 is less than 50%. For the same molecule, the IC50 with sodium channel (activity level class) lay in the range of 1 to 100 nM.
`CCCCCN1C(=O)C2(COc3cc4c(cc32)OCCO4)c2ccccc21` (stereo not drawn) [Example 8.4, 1′-pentyl-2,3-dihydrospiro[furo[2,3-g][1,4]benzodioxine-8,3′-indol]-2′(1′H)-one] returned a melting point of 129 to 130 °C. For the same molecule, in series [1], the Ki was less than 300 nM. In addition, at CYP3A4, the inhibition at 10 µM is greater than 50%. In the series on sodium channel (activity level class), the IC50 is 1 to 100 nM.
For `O=C1N(C[C@H]2COCCO2)c2ccccc2[C@@]12COc1cc3c(cc12)OCCO3` [Example 8.6, (8R)-1′-[(2S)-1,4-dioxan-2-ylmethyl]-2,3-dihydrospiro[furo[2,3-g][1,4]benzodioxine-8,3′-indol]-2′(1′H)-one] the same measures were 207 to 209 °C, greater than 300 nM, less than 50% and 1000 to 10000 nM.
`O=C1N(C[C@@H]2COCCO2)c2ccccc2[C@]12COc1cc3c(cc12)OCCO3` [Example 8.8, (8S)-1′-[(2R)-1,4-dioxan-2-ylmethyl]-2,3-dihydrospiro[furo[2,3-g][1,4]benzodioxine-8,3′-indol]-2′(1′H)-one]: the melting point fell in the range of 207 to 210 °C. The Ki in series [1] is less than 300 nM. Moreover, on CYP3A4, the inhibition at 10 µM is less than 50%. Also, the IC50 in the series on sodium channel (activity level class) lay within 1 to 100 nM.
In the same order, the values of `O=C1N(C[C@@H]2COCCO2)c2ccccc2C12COc1cc3c(cc12)OCCCO3` (stereo partly drawn) [Example 8.12, 1′-[(2R)-1,4-dioxan-2-ylmethyl]-3,4-dihydro-2H-spiro[furo[2,3-h][1,5]benzodioxepine-9,3′-indol]-2′(1′H)-one] are 144 to 147 °C, greater than 300 nM, less than 50% and 100 to 1000 nM.
The molecule `Cc1noc2cc3c(cc12)C1(CO3)C(=O)N(Cc2ccc(C(F)(F)F)o2)c2ccccc21` (stereo not drawn) [Example 9, 3-methyl-1′-{[5-(trifluoromethyl)furan-2-yl]methyl}spiro[furo[3,2-f][1,2]benzisoxazole-5,3′-indol]-2′(1′H)-one] registered a melting point of 111 to 112 °C. Besides, the Ki in series [1] is less than 300 nM. Besides, the inhibition at 10 µM at CYP3A4 is greater than 50%. The IC50 in the series on sodium channel (activity level class) is 1 to 100 nM.
As to `O=C1N(Cc2ccncn2)c2ccccc2C12COc1cc3c(cc12)CCO3` (stereo not drawn) [Example 9.6, 1-(pyrimidin-4-ylmethyl)-5,6-dihydrospiro[benzo[1,2-b:5,4-b′]difuran-3,3′-indol]-2′(1′H)-one], the melting point was 158 to 160 °C. Moreover, in series [1], the Ki was greater than 300 nM. Moreover, the inhibition at 10 µM on CYP3A4 was less than 50%. Further, in the series on sodium channel (activity level class), the IC50 fell in the range of 1 to 100 nM.
For the molecule `COCCOCCN1C(=O)C2(COc3cc4c(cc32)OCCO4)c2ccccc21` (stereo not drawn) [Example 9.20, 1′-[2-(2-methoxyethoxy)ethyl]-2,3-dihydrospiro[furo[2,3-g][1,4]benzodioxine-8,3′-indol]-2′(1′H)-one], the melting point is 90 to 91 °C. In addition, in series [1], the Ki was less than 300 nM. Besides, on CYP3A4, the inhibition at 10 µM is less than 50%. In addition, in the series on sodium channel (activity level class), the IC50 is 1 to 100 nM.
Regarding `Cc1noc2cc3c(cc12)C1(CO3)C(=O)N(Cc2ccccn2)c2ccccc21` (stereo not drawn) [Example 9.24, 3-methyl-1′-(pyridin-2-ylmethyl)spiro[furo[3,2-f][1,2]benzisoxazole-5,3′-indol]-2′(1′H)-one], the melting point is 142 to 143 °C. The molecule further came in with a Ki in series [1] greater than 300 nM. Moreover, the inhibition at 10 µM at CYP3A4 is greater than 50%. Besides, the IC50 with sodium channel (activity level class) was in the range of 1 to 100 nM.
Regarding `Cc1nc(-c2ccc(CN3C(=O)C4(COc5cc6c(cc54)CCO6)c4ccccc43)cc2)no1` (stereo not drawn) [Example 11.14, 1′-[4-(5-methyl-1,2,4-oxadiazol-3-yl)benzyl]-5,6-dihydrospiro[benzo[1,2-b:5,4-b′]difuran-3,3′-indol]-2′(1′H)-one], the melting point is 185 to 186 °C. The same molecule registered a Ki in series [1] of less than 300 nM. The inhibition at 10 µM at CYP3A4 was less than 50%. In addition, the IC50 with sodium channel fell in the range of 1 to 100 nM.
Molecule `Cc1nc(-c2cccc(CN3C(=O)C4(COc5cc6c(cc54)CCO6)c4ccccc43)c2)no1` (stereo not drawn) [Example 11.27, 1′-[3-(5-methyl-1,2,4-oxadiazol-3-yl)benzyl]-5,6-dihydrospiro[benzo[1,2-b:5,4-b′]difuran-3,3′-indol]-2′(1′H)-one] had a melting point of 209 to 213 °C. The Ki in series [1] was less than 300 nM. Moreover, at CYP3A4, the inhibition at 10 µM is greater than 50%. For the same molecule, in the series with sodium channel, the IC50 was 1 to 100 nM.
